Tests used:
COMT activity in brain = details: cited from earlier work
[1] = system: patients with early idiopathic Parkinson's disease treated with levodopa/DDCI, with no signs of motor complications; experiment: EPSILON Phase III study, safety (treatment emergent adverse events)
Excerpt: The term “treatment-emergent adverse event” is defined as any event not present before exposure to the study drug or any event already present that worsens in either intensity or frequency after first intake of study drug until 2 weeks after last intake of the study drug.
The factors evaluated include: • Treatment-emergent adverse events (TEAEs) including serious adverse events (SAEs) • Laboratory safety tests (biochemistry, hematology, coagulation and urinalysis) • Physical and neurological examinations • Vital signs • 12-lead ECG readings • Columbia-Suicide Severity Rating Scale (C-SSRS) • Modified Minnesota Impulsive Disorders Interview (mMIDI)

Cc1c(Cl)c(C)[n+]([O-])c(Cl)c1-c1noc(-c2cc(O)c(O)c([N+](=O)[O-])c2)n1 [opicapone, 2,5-dichloro-3-[5-(3,4-dihydroxy-5-nitrophenyl)-1,2,4-oxadiazol-3-yl]-4,6-dimethylpyridine 1-oxide]
effect on COMT activity in brain (COMT activity in brain): does not appear to have any effect
Any Serious TEAE; % ([1]; double blind phase, N = 177): (5.1) %
Any Serious TEAE; n ([1]; double blind phase, N = 177): 9
Any TEAE by Maximum Severity: Mild; % ([1]; double blind phase, N = 177): (29.9) %
Any TEAE by Maximum Severity: Mild; n ([1]; double blind phase, N = 177): 53
Any TEAE by Maximum Severity: Moderate; % ([1]; double blind phase, N = 177): (14.1) %
Any TEAE by Maximum Severity: Moderate; n ([1]; double blind phase, N = 177): 25
Any TEAE by Maximum Severity: Severe; % ([1]; double blind phase, N = 177): (3.4) %
Any TEAE by Maximum Severity: Severe; n ([1]; double blind phase, N = 177): 6
Any TEAE by Worst Relationship: Definitely Related; % ([1]; double blind phase, N = 177): (1.1) %
Any TEAE by Worst Relationship: Definitely Related; n ([1]; double blind phase, N = 177): 2
Any TEAE by Worst Relationship: Not Related (first line, total incl. Unlikely Related); % ([1]; double blind phase, N = 177): (37.3) %
Any TEAE by Worst Relationship: Not Related (first line, total incl. Unlikely Related); n ([1]; double blind phase, N = 177): 66
Any TEAE by Worst Relationship: Not Related (second line, sub-category); % ([1]; double blind phase, N = 177): (36.2) %
Any TEAE by Worst Relationship: Not Related (second line, sub-category); n ([1]; double blind phase, N = 177): 64
Any TEAE by Worst Relationship: Possibly Related; % ([1]; double blind phase, N = 177): (5.6) %
Any TEAE by Worst Relationship: Possibly Related; n ([1]; double blind phase, N = 177): 10
Any TEAE by Worst Relationship: Probably Related; % ([1]; double blind phase, N = 177): (3.4) %
Any TEAE by Worst Relationship: Probably Related; n ([1]; double blind phase, N = 177): 6
Any TEAE by Worst Relationship: Related; % ([1]; double blind phase, N = 177): (10.2) %
Any TEAE by Worst Relationship: Related; n ([1]; double blind phase, N = 177): 18
Any TEAE by Worst Relationship: Unlikely Related; % ([1]; double blind phase, N = 177): (1.1) %
Any TEAE by Worst Relationship: Unlikely Related; n ([1]; double blind phase, N = 177): 2
Any TEAE leading to Death; % ([1]; double blind phase, N = 177): (0.6) %
Any TEAE leading to Death; n ([1]; double blind phase, N = 177): 1
Any TEAE leading to IMP interruption; % ([1]; double blind phase, N = 177): (0.6) %
Any TEAE leading to IMP interruption; n ([1]; double blind phase, N = 177): 1
Any TEAE leading to Withdrawal; % ([1]; double blind phase, N = 177): (1.1) %
Any TEAE leading to Withdrawal; n ([1]; double blind phase, N = 177): 2
Any TEAE; % ([1]; double blind phase, N = 177): (47.5) %
Any TEAE; n ([1]; double blind phase, N = 177): 84
TEAE Arthralgia; % ([1]; double blind phase, N = 177): (2.3) %
TEAE Arthralgia; n ([1]; double blind phase, N = 177): 4
TEAE Back pain; % ([1]; double blind phase, N = 177): (4.5) %
TEAE Back pain; n ([1]; double blind phase, N = 177): 8
TEAE Dizziness; % ([1]; double blind phase, N = 177): (1.1) %
TEAE Dizziness; n ([1]; double blind phase, N = 177): 2
TEAE Dyskinesia; % ([1]; double blind phase, N = 177): (1.7) %
TEAE Dyskinesia; n ([1]; double blind phase, N = 177): 3
TEAE Fall; % ([1]; double blind phase, N = 177): (2.3) %
TEAE Fall; n ([1]; double blind phase, N = 177): 4
TEAE Fatigue; % ([1]; double blind phase, N = 177): (2.8) %
TEAE Fatigue; n ([1]; double blind phase, N = 177): 5
TEAE Gastrointestinal disorders; % ([1]; double blind phase, N = 177): (6.8) %
TEAE Gastrointestinal disorders; n ([1]; double blind phase, N = 177): 12
TEAE General disorders; % ([1]; double blind phase, N = 177): (7.9) %
TEAE General disorders; n ([1]; double blind phase, N = 177): 14
TEAE Headache; % ([1]; double blind phase, N = 177): (0.6) %
TEAE Headache; n ([1]; double blind phase, N = 177): 1
TEAE Hypertension; % ([1]; double blind phase, N = 177): (2.8) %
TEAE Hypertension; n ([1]; double blind phase, N = 177): 5
TEAE Infections and Infestations; % ([1]; double blind phase, N = 177): (15.8) %
TEAE Infections and Infestations; n ([1]; double blind phase, N = 177): 28
TEAE Injury, poisoning and procedural complications; % ([1]; double blind phase, N = 177): (3.4) %
TEAE Injury, poisoning and procedural complications; n ([1]; double blind phase, N = 177): 6
TEAE Insomnia; % ([1]; double blind phase, N = 177): (2.3) %
TEAE Insomnia; n ([1]; double blind phase, N = 177): 4
TEAE Musculoskeletal and connective tissue disorders; % ([1]; double blind phase, N = 177): (10.2) %
TEAE Musculoskeletal and connective tissue disorders; n ([1]; double blind phase, N = 177): 18
TEAE Nausea; % ([1]; double blind phase, N = 177): (2.3) %
TEAE Nausea; n ([1]; double blind phase, N = 177): 4
TEAE Nervous System Disorders; % ([1]; double blind phase, N = 177): (13.6) %
TEAE Nervous System Disorders; n ([1]; double blind phase, N = 177): 24
TEAE Oedema peripheral; % ([1]; double blind phase, N = 177): (2.3) %
TEAE Oedema peripheral; n ([1]; double blind phase, N = 177): 4
TEAE On and off phenomenon; % ([1]; double blind phase, N = 177): (4.5) %
TEAE On and off phenomenon; n ([1]; double blind phase, N = 177): 8
TEAE Psychiatric disorders; % ([1]; double blind phase, N = 177): (7.9) %
TEAE Psychiatric disorders; n ([1]; double blind phase, N = 177): 14
TEAE Tremor; % ([1]; double blind phase, N = 177): (1.1) %
TEAE Tremor; n ([1]; double blind phase, N = 177): 2
TEAE Upper respiratory tract infection; % ([1]; double blind phase, N = 177): (0.6) %
TEAE Upper respiratory tract infection; n ([1]; double blind phase, N = 177): 1
TEAE Urinary tract infection; % ([1]; double blind phase, N = 177): (2.3) %
TEAE Urinary tract infection; n ([1]; double blind phase, N = 177): 4
TEAE Vascular disorders; % ([1]; double blind phase, N = 177): (5.6) %
TEAE Vascular disorders; n ([1]; double blind phase, N = 177): 10
TEAE Vomiting; % ([1]; double blind phase, N = 177): (1.7) %
TEAE Vomiting; n ([1]; double blind phase, N = 177): 3
increase in treatment emergent adverse events including nervous system disorders such as dyskinesia ([1]; opicapone-treated patients vs placebo): no increase
tolerability ([1]; patients without clinically diagnosed motor complications): well tolerated

Reference: patent publication US20230390267A1, “TREATMENT REGIMENS FOR EARLY IDIOPATHIC PARKINSON'S DISEASE” (BIAL - PORTELA & CA., S.A., priority 2020, published 2023)
